Results from PubChem BioAssay AID1845212 (Molecular Pharmacology Branch, DTP, NCI, 2023).
Where “and” joins values, the source holds several entries; their conditions need not be identical. Equal values may be shown once. Calls of active or inactive are those of the source. How the source made its calls: active means viability on the fitted dose curve at most 10% of control; inactive means the rest.

Test system: NCI-H719 tumor spheroids, viability
Experiment: Anticancer human tumor NCI-H719 cell line growth inhibition;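 on IC50: spheroids exposed to compounds for seven days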;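 on viability, T/C: spheroids exposed to compounds for seven days; percent viability relative to DMSO vehicle control as 100%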
Settings: spheroids with HUVEC and MSC; for viability, T/C: stronger effect = lower value
Outline: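 Single agents and combinations were tested on spheroids built from tumor cells plus HUVEC and hMSC, at half-log dilutions starting at or near clinical Cmax, else 10 microM; final DMSO 0.25% (v/v).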

`[2H]c1nc(C)nc([2H])c1-c1cc(NC[C@@H](C)c2cccc3c(C(=O)NC)ccnc23)ncn1` was tested, and the viability, T/C (compound 0.0316 µM) was 94% and 100% and 109%, the viability, T/C (compound 0.1 µM) was 99.8% and 100% and 112% and the viability, T/C (compound 0.316 µM) was 91.7% and 123%. The outcome (compound 0.316 µM) was “inactive”, the viability, T/C (compound 1 µM) was 88.7% and 104% and 94.6% and the viability, T/C (compound 3.16 µM) was 71.9% and 105% and 111%. For the same molecule, the viability, T/C (compound 10 µM) was 99.7% and 92.6% and 95.8% and the IC50 (curve of compound) was over 10000 nM.
`CNCc1ccc(-c2cc(-c3nc(-c4ccc(S(=O)(=O)C(C)C)cc4)cnc3N)on2)cc1` + Cn1nnc2c(C(N)=O)ncn2c1=O showed an IC50 (curve of first compound, second compound 1 µM) of 131 nM, an IC50 (curve of first compound, second compound 3.16 µM) of 95.4 nM and an IC50 (curve of first compound, second compound 10 µM) of 162 nM. For the same molecule, the IC50 (curve of first compound, second compound 31.6 µM) was 94.4 nM, the IC50 (curve of first compound, second compound 100 µM) was 33.6 nM and the viability, T/C (second compound 1 µM, first compound 0.00949 µM) was 88.2%. It also gave a viability, T/C (second compound 1 µM, first compound 0.03 µM) of 95%, a viability, T/C (second compound 1 µM, first compound 0.0949 µM) of 43.5% and a viability, T/C (second compound 1 µM, first compound 0.3 µM) of 39%. The viability, T/C (second compound 1 µM, first compound 0.949 µM) was 8.27%, the viability, T/C (second compound 1 µM, first compound 3 µM) was 0.15% and the viability, T/C (second compound 3.16 µM, first compound 0.00949 µM) was 97.6%. It also gave a viability, T/C (second compound 3.16 µM, first compound 0.03 µM) of 94.2%, a viability, T/C (second compound 3.16 µM, first compound 0.0949 µM) of 46.7% and a viability, T/C (second compound 3.16 µM, first compound 0.3 µM) of 18.9%. The viability, T/C (second compound 3.16 µM, first compound 0.949 µM) was 9.22%, the viability, T/C (second compound 3.16 µM, first compound 3 µM) was 0.14% and the viability, T/C (second compound 10 µM, first compound 0.00949 µM) was 101%. It also gave a viability, T/C (second compound 10 µM, first compound 0.03 µM) of 93.7%, a viability, T/C (second compound 10 µM, first compound 0.0949 µM) of 80.2% and a viability, T/C (second compound 10 µM, first compound 0.3 µM) of 15%. It also gave a viability, T/C (second compound 10 µM, first compound 0.949 µM) of 8.28%, a viability, T/C (second compound 10 µM, first compound 3 µM) of 18.1% and a viability, T/C (second compound 31.6 µM, first compound 0.00949 µM) of 105%. It also gave a viability, T/C (second compound 31.6 µM, first compound 0.03 µM) of 106%, a viability, T/C (second compound 31.6 µM, first compound 0.0949 µM) of 49.8% and a viability, T/C (second compound 31.6 µM, first compound 0.3 µM) of 15.7%. For the same molecule, the viability, T/C (second compound 31.6 µM, first compound 0.949 µM) was 8.28%, the viability, T/C (second compound 31.6 µM, first compound 3 µM) was 37.8% and the viability, T/C (second compound 100 µM, first compound 0.00949 µM) was 80%. The viability, T/C (second compound 100 µM, first compound 0.03 µM) was 52.8%, the viability, T/C (second compound 100 µM, first compound 0.0949 µM) was 24.4% and the viability, T/C (second compound 100 µM, first compound 0.3 µM) was 9.66%. The viability, T/C (second compound 100 µM, first compound 0.949 µM) was 39.1% and the viability, T/C (second compound 100 µM, first compound 3 µM) was 0.23%.
For `CC(C)n1c(=O)n(C)c2cnc3cc(F)c(-c4ccc(OCCCN5CCCCC5)nc4)cc3c21`, the viability, T/C (compound 0.0316 µM) was 82.1% and 106% and 81.7%, the viability, T/C (compound 0.1 µM) was 93.8% and 98.1% and 94.4% and the viability, T/C (compound 0.316 µM) was 116% and 107% and 117%. For the same molecule, the viability, T/C (compound 1 µM) was 81.4% and 94.8% and 103%, the viability, T/C (compound 3.16 µM) was 85.7% and 142% and 110% and the viability, T/C (compound 10 µM) was 108% and 104% and 123%. For the same molecule, the IC50 (curve of compound) was over 10000 nM.
With `Cc1sc2c(c1C)C(c1ccc(Cl)cc1)=NC(CC(=O)Nc1ccc(O)cc1)c1nnc(C)n1-2` (configuration not stated) the viability, T/C (compound 0.00949 µM) was 95.3% and 98.3% and 94.6%, the viability, T/C (compound 0.03 µM) was 95.8% and 95.1% and 102% and the viability, T/C (compound 0.0949 µM) was 47.7% and 63.8% and 60.6%. The viability, T/C (compound 0.3 µM) was 22.9% and 31% and 24.5%, the viability, T/C (compound 0.949 µM) was 4.99% and 4.88% and 4.46% and the viability, T/C (compound 3 µM) was 3.39% and 2.12% and 2.52%. For the same molecule, the IC50 (curve of compound) was 104 nM and 156 nM and 140 nM.
